The source of these data is publication PMC9783183, “Substrate Recognition Properties from an Intermediate Structural State of the UreA Transporter” (International Journal of Molecular Sciences, 2022).

One data set concerns the target T1, UreA N279Q (Aspergillus nidulans, UniProt Q5BGB2, N279Q).
T1 sequence (Q5BGB2 1-693 N279Q): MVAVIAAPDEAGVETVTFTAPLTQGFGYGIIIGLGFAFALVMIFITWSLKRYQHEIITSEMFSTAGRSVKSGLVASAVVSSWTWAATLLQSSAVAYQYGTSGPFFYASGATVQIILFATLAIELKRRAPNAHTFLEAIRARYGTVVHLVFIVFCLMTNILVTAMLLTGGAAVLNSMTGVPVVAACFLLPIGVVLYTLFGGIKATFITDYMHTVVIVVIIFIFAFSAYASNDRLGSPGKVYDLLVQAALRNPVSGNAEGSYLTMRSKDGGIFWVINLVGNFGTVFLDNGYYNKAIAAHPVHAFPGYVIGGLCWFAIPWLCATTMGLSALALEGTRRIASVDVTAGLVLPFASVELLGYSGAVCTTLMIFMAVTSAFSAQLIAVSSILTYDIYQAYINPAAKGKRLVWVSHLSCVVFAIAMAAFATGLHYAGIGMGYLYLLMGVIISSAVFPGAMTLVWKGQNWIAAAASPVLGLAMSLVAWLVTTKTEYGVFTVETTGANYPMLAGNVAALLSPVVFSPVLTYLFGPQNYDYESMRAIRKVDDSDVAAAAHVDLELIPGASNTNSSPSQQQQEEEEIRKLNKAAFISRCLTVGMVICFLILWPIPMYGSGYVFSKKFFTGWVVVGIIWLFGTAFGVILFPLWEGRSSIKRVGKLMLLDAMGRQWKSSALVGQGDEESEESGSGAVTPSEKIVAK
The data set is described as follows: [14C]-urea uptake in germinating conidiospores, UreA N279Q mutant. The following applies: for Vo (%) initial uptake rate: allele N279Q, % of wt, [14C]-urea 1.0 μM, 2 min, 37 °C. As to the method: (§1) Radiolabelled [^14C]-urea (55.0 mCi mmol^−1) was purchased from Moravek Biochemicals, Brea, CA, USA. [^14C]-urea uptake assays were performed in A. nidulans germinating conidiospores. Initial velocities were measured after 2 min of incubation at 37 °C with a [^14C]-urea concentration of 1.0 μΜ, and are expressed as % of the wt value, in pmoles min^−1/10^7 conidiospores. Apparent Km/i values were obtained directly by performing and analyzing [^14C]-urea uptakes (Prism 3.02: Graph Pad Software, Inc., San Diego, CA, USA), from IC50 values in the presence of various concentrations (0.5–3000 μM) of non-labelled substrates, as previously described. […] The Ki values are then calculated from IC50 values, based on the equation: Ki = IC50/[1 + (S/Km)] […] Transport assays were carried out in at least three independent experiments, in triplicates for each concentration or time point. Background uptake values were corrected by subtracting values measured in the deleted mutants (UreAΔ).

The target in a further data set is T2, UreA W84A (Aspergillus nidulans, UniProt Q5BGB2, W84A).
T2 sequence (Q5BGB2 1-693 W84A): T1 sequence (Q5BGB2 1-693 N279Q)
The data set is described as follows: [14C]-urea uptake in germinating conidiospores, UreA W84A mutant. How it is done:
as §1

The target in the next data set is T3, UreA W84F (Aspergillus nidulans, UniProt Q5BGB2, W84F).
T3 sequence (Q5BGB2 1-693 W84F): T1 sequence (Q5BGB2 1-693 N279Q)
Briefly: [14C]-urea uptake in germinating conidiospores, UreA W84F mutant. As to the method:
as §1

Another data set addresses T4, UreA wt (Aspergillus nidulans, UniProt Q5BGB2).
T4 sequence (Q5BGB2 1-693): T1 sequence (Q5BGB2 1-693 N279Q)
Briefly: [14C]-urea uptake in germinating conidiospores, wt UreA. The data set is classed as cell-based. The following applies: allele wt; for Ki: inhibition of [14C]-urea uptake, Ki from IC50. How it is done: as §1

For another data set, the system named is UreA W82F. The following applies: cited from earlier work; for affinity relative to wt (in words): allele W82F vs wt, ref [16].
In the next data set the target is T5, UreA T282A (Aspergillus nidulans, UniProt Q5BGB2, T282A).
T5 sequence (Q5BGB2 1-693 T282A): T1 sequence (Q5BGB2 1-693 N279Q)
The data set is described as follows: [14C]-urea uptake in germinating conidiospores, UreA T282A mutant. Conditions: for Vo (%) initial uptake rate: allele T282A, % of wt, [14C]-urea 1.0 μM, 2 min, 37 °C. How it is done: as §1

For a further data set, the target named is T6, UreA W84Y (Aspergillus nidulans, UniProt Q5BGB2, W84Y).
T6 sequence (Q5BGB2 1-693 W84Y): T1 sequence (Q5BGB2 1-693 N279Q)
Briefly: [14C]-urea uptake in germinating conidiospores, UreA W84Y mutant. As to the method:
as §1

The target of a further data set is T7, UreA W82Y (Aspergillus nidulans, UniProt Q5BGB2, W82Y).
T7 sequence (Q5BGB2 1-693 W82Y): T1 sequence (Q5BGB2 1-693 N279Q)
Briefly: [14C]-urea uptake in germinating conidiospores, UreA W82Y mutant. Conditions: for Vo (%) initial uptake rate: allele W82Y, % of wt, [14C]-urea 1.0 μM, 2 min, 37 °C. How it is done:
as §1

The target in a further data set is T8, UreA T282S (Aspergillus nidulans, UniProt Q5BGB2, T282S).
T8 sequence (Q5BGB2 1-693 T282S): T1 sequence (Q5BGB2 1-693 N279Q)
The data set is described as follows: [14C]-urea uptake in germinating conidiospores, UreA T282S mutant. Conditions: for fold drop in affinity: allele T282S vs wt; for Vo (%) initial uptake rate: allele T282S, % of wt, [14C]-urea 1.0 μM, 2 min, 37 °C. How it is done:
as §1

A further data set deals with T9, UreA N279A (Aspergillus nidulans, UniProt Q5BGB2, N279A).
T9 sequence (Q5BGB2 1-693 N279A): T1 sequence (Q5BGB2 1-693 N279Q)
The data set is described as follows: [14C]-urea uptake in germinating conidiospores, UreA N279A mutant. As to the method: as §1

Another data set relates to NC(N)=O. The data set is described as follows: cells, lysate or membranes. The following applies: 37.0 °C.

Read-outs that look alike come from different tables or passages of the source.

In general, Ki refers to the dissociation constant of the complex between target and ligand, obtained from inhibition or displacement. Usually Km stands for the concentration of substrate that gives half-maximal velocity.

Protocol for NC(N)=O: [^14C]-urea uptake assays were performed in A. nidulans germinating conidiospores. Initial velocities were measured after 2 min of incubation at 37 °C with a [^14C]-urea concentration of 1.0 μΜ, and are expressed as % of the wt value, in pmoles min^−1/10^7 conidiospores. Apparent Km/i values were obtained directly by performing and analyzing [^14C]-urea uptakes (Prism 3.02: Graph Pad Software, Inc., San Diego, CA, USA), from IC50 values in the presence of various concentrations (0.5–3000 μM) of non-labelled substrates, as previously described [4, 16, 58]. […] The Ki values are then calculated from IC50 values, based on the equation: Ki = IC50/[1 + (S/Km)] […] Transport assays were carried out in at least three independent experiments, in triplicates for each concentration or time point. Background uptake values were corrected by subtracting values measured in the deleted mutants (UreAΔ). Standard deviation was <20%.

As for `CC(N)=O` [Acetamide, acetamide], the Ki at UreA N279Q was 87 ± 9 µM; on UreA W84A it was 489 ± 39 µM; on UreA W84F it was 524 ± 42 µM; at UreA wt (read-out: Acetamide Ki), 237 ± 14 µM; on UreA W82F (allele W82F, ref Sanguinetti et al. (2014) [8], read-out: Acetamide Ki) it was 198 ± 12 µM; at UreA T282A, 361 ± 85 µM. Further, the Ki on UreA W84Y is over 1000 µM; at UreA W82Y, 101 ± 16 µM; at UreA T282S it was 290 ± 12 µM; at UreA N279A it was 51 ± 5 µM. The “Ki fold lower as compared to the wt” value is on record as “≈ 2.7 fold” at UreA N279Q (allele N279Q vs wt) and “≈ 4.6 fold” on UreA N279A (allele N279A vs wt). Also, in the data set on UreA W82F, the “affinity relative to wt (in words)” value is on record as “augmented”. Further, the “fold decrease in affinity” value on UreA T282A (allele T282A vs wt) turned out to be 1.6 fold.
For `NC(N)=S` [Thiourea, 2-thiourea], the Ki at UreA N279Q is 813 ± 59 µM; at UreA W84A it was over 2000 µM; on UreA W84F, over 2000 µM; at UreA wt (read-out: Thiourea Ki) it was 528 ± 42 µM; on UreA W82F (allele W82F, ref Sanguinetti et al. (2014) [8], read-out: Thiourea Ki), 447 ± 24 µM; at UreA T282A it was over 1000 µM. Also, the Ki at UreA W84Y was over 2000 µM; on UreA W82Y, over 1000 µM; on UreA T282S, over 1000 µM; on UreA N279A, over 1000 µM. In addition, on UreA N279Q (allele N279Q vs wt), the “affinity fold lower than that of the wt” value is listed as 1.5 fold. Besides, in the data set with UreA W82F, the “affinity relative to wt (in words)” value is listed as “augmented”. In addition, the “fold decrease in affinity” value on UreA T282A (allele T282A vs wt) was 2 fold. In addition, the “fold drop in affinity” value at UreA T282S was over 2 fold.
With `NC(N)=O` [Urea, urea], the “affinity fold lower than that of the wt” value on UreA N279Q (allele N279Q vs wt) stood at 3.5 fold. Besides, the “Vo (%) initial uptake rate” value on UreA N279Q is on record as 70 ± 3%; on UreA N279Q (listed as urea) it was “≈ 70%”; on UreA W84A (allele W84A, % of wt, [14C]-urea 1.0 μM, 2 min, 37 °C) it was 20 ± 2%; on UreA W84F (allele W84F, % of wt, [14C]-urea 1.0 μM, 2 min, 37 °C) it was 15 ± 2%; at UreA wt (% of wt, [14C]-urea 1.0 μM, 2 min, 37 °C) it was 100%; with UreA W82F (allele W82F, % of wt, ref Sanguinetti et al. (2014) [8]), 50 ± 8%. For the same molecule, the “Vo (%) initial uptake rate” value is 14 ± 2% on UreA T282A; 14% at UreA T282A (listed as urea); 46 ± 4% on UreA W84Y (allele W84Y, % of wt, [14C]-urea 1.0 μM, 2 min, 37 °C); 25 ± 2% at UreA W82Y; “≈ 25%” on UreA W82Y (listed as urea); 65 ± 3% at UreA T282S. Also, the “Vo (%) initial uptake rate” value is given as “≈ 65%” on UreA T282S (listed as urea) and 100 ± 5% on UreA N279A (allele N279A, % of wt, [14C]-urea 1.0 μM, 2 min, 37 °C). The “affinity relative to wt (in words)” value with UreA W82F was “unchanged”. Also, the Km in the data set on UreA W82F (allele W82F, ref Sanguinetti et al. (2014) [8]) is 23 ± 5 µM. At UreA T282A (allele T282A vs wt), the “Km fold lower than that of the wt” value amounted to 3 fold. Moreover, the “drop in urea affinity” value on UreA W82Y (allele W82Y vs wt) is listed as “≈ 50%”. The “fold drop in affinity” value on UreA T282S was 5 fold.
Take `N=C(N)N` [guanidine]: the “affinity relative to wt (in words)” value in the data set with UreA W82F is “augmented”.
For “UreA N279A (Aspergillus nidulans FGSC A4; N279A)”, the Michaelis-Menten constant (Km) in the data set on NC(N)=O (other: allele N279A) was determined as 30 ± 3 µM.
On to “UreA N279Q (Aspergillus nidulans FGSC A4; N279Q)”, for which the Km in the data set on NC(N)=O (other: allele N279Q) is 91 ± 6 µM.
As for “UreA T282A (Aspergillus nidulans FGSC A4; T282A)”, in the data set with NC(N)=O (other: allele T282A), the Km was 80 ± 27 µM.
With “UreA T282S (Aspergillus nidulans FGSC A4; T282S)”, in the data set with NC(N)=O (other: allele T282S), the Km was 130 ± 22 µM.
With “UreA W82Y (Aspergillus nidulans FGSC A4; W82Y)”, the Km with NC(N)=O (other: allele W82Y) is given as 42 ± 5 µM.
In the case of “UreA W84A (Aspergillus nidulans FGSC A4; W84A)”, the Km in the data set on NC(N)=O (other: allele W84A) is on record as 193 ± 12 µM.
Consider “UreA W84F (Aspergillus nidulans FGSC A4; W84F)”, for which the Km in the data set on NC(N)=O (other: allele W84F) was found to be 96 ± 13 µM.
Consider “UreA W84Y (Aspergillus nidulans FGSC A4; W84Y)”, for which the Km with NC(N)=O (other: allele W84Y) came out at 159 ± 11 µM.
